According to ChEMBL document CHEMBL3879900, “aSMase inhibitors” (2012):
Activity calls are given as the source filed them. The rule behind the calls is not given here.

Biological target: T1, Sphingomyelin phosphodiesterase (Homo sapiens) (UniProt P17405)
T1 sequence (whole entry): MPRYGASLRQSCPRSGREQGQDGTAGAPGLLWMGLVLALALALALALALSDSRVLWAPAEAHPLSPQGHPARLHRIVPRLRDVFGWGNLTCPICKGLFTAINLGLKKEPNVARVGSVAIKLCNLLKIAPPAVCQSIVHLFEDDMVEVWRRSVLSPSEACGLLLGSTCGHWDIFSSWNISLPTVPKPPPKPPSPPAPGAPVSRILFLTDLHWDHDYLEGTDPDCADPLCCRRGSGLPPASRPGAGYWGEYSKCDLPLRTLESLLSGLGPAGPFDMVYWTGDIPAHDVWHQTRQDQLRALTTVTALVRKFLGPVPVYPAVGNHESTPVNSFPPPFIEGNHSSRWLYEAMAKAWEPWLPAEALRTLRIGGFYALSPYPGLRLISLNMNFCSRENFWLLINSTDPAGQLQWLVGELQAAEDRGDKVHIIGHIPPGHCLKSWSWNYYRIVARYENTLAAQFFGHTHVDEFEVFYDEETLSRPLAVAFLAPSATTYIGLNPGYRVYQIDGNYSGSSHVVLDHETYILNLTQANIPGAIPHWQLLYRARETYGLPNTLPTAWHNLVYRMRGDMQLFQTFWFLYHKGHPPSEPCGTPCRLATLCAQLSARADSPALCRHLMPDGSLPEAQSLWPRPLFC
Assay: Inhibition of recombinant human acid sphingomyelinase expressed in HEKfreestyle293 cells using bodipy-C12 sphingomyelin as substrate and nanomolar to low micromolar concentration of compound after 1 hr by fluorescence assay

Row | Structure (SMILES) | inhibition
1 | CCCCCCCCOc1ccc(-c2ccc(C(=O)Nc3cccc(C(F)(F)P(=O)(OCC)OCC)c3)cc2)cc1 | Active
2 | CCCCCCCCOc1ccc(-c2ccc(C(=O)N(C)c3cccc(C(F)(F)P(=O)(OCC)OCC)c3)cc2)cc1 | Active
3 | CCCCCCCCOc1ccc(-c2ccc(C(=O)Nc3ccc(C(F)(F)P(=O)(OCC)OCC)cc3)cc2)cc1 | Active
4 | CCCCCCCCOc1ccc(-c2ccc(C(=O)N(CC)c3cccc(C(F)(F)P(=O)(OCC)OCC)c3)cc2)cc1 | Active
5 | O=C(Nc1ccccc1CP(=O)(O)O)C12CC3CC(C1)CC(c1ccccc1)(C3)C2 | Active
6 | CCCCCCCCOc1ccc(-c2ccc(C(=O)N(C)c3cccc(C(F)(F)P(=O)(O)O)c3)cc2)cc1 | Active
7 | CCCCCCCCOc1ccc(-c2ccc(C(=O)N(C)c3ccccc3C(F)(F)P(=O)(OC)OCC)cc2)cc1 (stereo not drawn) | Active
8 | CCCCCCCCOc1ccc(-c2ccc(C(=O)Nc3cccc(CP(=O)(OCC)OCC)c3)cc2)cc1 | Active
9 | CCCCCCCCOc1ccc(-c2ccc(C(=O)Nc3ccc(C(F)(F)C(F)(F)P(=O)(OCC)OCC)cc3)cc2)cc1 | Active
10 | CCCCCCCCOc1ccc(-c2ccc(C(=O)N(C)c3ccc(C(F)(F)P(=O)(OCC)OCC)cc3)cc2)cc1 | Active
11 | CCCCCCCCOc1ccc(-c2ccc(C(=O)Nc3cccc(CCP(=O)(OCC)OCC)c3)cc2)cc1 | Active
12 | CCCCCCCCOc1ccc(-c2ccc(C(=O)Nc3cccc(C(F)(F)C(F)(F)P(=O)(OCC)OCC)c3)cc2)cc1 | Active
13 | CCCCCCCCOc1ccc(-c2ccc(C(=O)Nc3ccc(C(F)(F)C(F)(F)P(=O)(O)OCC)cc3)cc2)cc1 | Active
14 | CCCCCCCCOc1ccc(-c2ccc(C(=O)Nc3cccc(N4CC(=O)NS4(=O)=O)c3)cc2)cc1 | Active
15 | O=C(Nc1ccccc1CP(=O)(O)O)c1ccc(-c2ccc(OCc3ccccc3)cc2)cc1 | Active
16 | CCCCCCCCOc1ccc(-c2ccc(C(=O)N(C)c3cccc(C(F)(F)P(=O)(OC)OCC)c3)cc2)cc1 (stereo not drawn) | Active
17 | CCCCCCCCOc1ccc(-c2ccc(C(=O)N(C)c3ccc(C(F)(F)P(=O)(OC)OCC)cc3)cc2)cc1 (stereo not drawn) | Active
18 | O=C(Nc1ccccc1CP(=O)(O)O)c1ccc(-c2ccccc2)cc1 | Active
19 | CCCCCCCCOc1ccc(-c2ccc(C(=O)N(C)c3ccc(C(F)(F)P(=O)(O)O)cc3)cc2)cc1 | Active
20 | CCCCCCCCOc1ccc(-c2ccc(C(=O)Nc3cccc(P(=O)(OCC)OCC)c3)cc2)cc1 | Active
21 | CCCCCCCCOc1ccc(-c2ccc(C(=O)Nc3ccc(P(=O)(OCC)OCC)cc3)cc2)cc1 | Active
22 | CCCCCCCCOc1ccc(-c2ccc(C(=O)Nc3ccccc3P(=O)(OCOC(=O)C(C)(C)C)OCOC(=O)C(C)(C)C)cc2)cc1 | Active
23 | CCCCCCCCOc1ccc(-c2ccc(C(=O)Nc3ccc(CCP(=O)(OCC)OCC)cc3)cc2)cc1 | Active
24 | CCCCCCCCOc1ccc(-c2ccc(C(=O)Nc3ccc(C(F)(F)CC(F)(F)P(=O)(OCC)OCC)cc3)cc2)cc1 | Active
25 | CCCCCCCCOc1ccc(-c2ccc(C(=O)N(C)c3ccccc3C(F)(F)P(=O)(OCC)OCC)cc2)cc1 | Active
26 | CCCCCCCCOc1ccc(-c2ccc(C(=O)N(C)c3cccc(C(F)(F)P(=O)(O)OCC)c3)cc2)cc1 | Active

Further lines, results first:

Row | inhibition | Structure (SMILES)
27 | Active | CCCCCCCCOc1ccc(-c2ccc(C(=O)Nc3ccccc3C(F)(F)P(=O)(OCC)OCC)cc2)cc1
28 | Active | COc1ccc(-c2ccc(C(=O)Nc3ccccc3CP(=O)(O)O)cc2)cc1
29 | Active | CCCCCCCCOc1ccc(-c2ccc(C(=O)Nc3ccccc3C(F)(F)P(=O)(OC)OCC)cc2)cc1 (stereo not drawn)
30 | Active | CCCCCCCCCCOc1ccc(-c2ccc(C(=O)Nc3ccccc3CP(=O)(O)O)cc2)cc1
31 | Active | CCCCCCCCOc1ccc(-c2ccc(C(=O)Nc3ccccc3CP(=O)(O)O)cc2)cc1
32 | Active | O=C(Nc1ccccc1CP(=O)(O)O)c1ccc(-c2ccc(O)cc2)cc1
33 | Active | CCCCCCCCOc1ccc(-c2ccc(C(=O)Nc3ccccc3P(=O)(O)OCOC(=O)C(C)(C)C)cc2)cc1
34 | Active | CCCCCCCCOc1ccc(-c2ccc(C(=O)Nc3ccccc3C(F)(F)P(=O)(O)OCC)cc2)cc1
35 | Active | CCCCCCc1ccc(-c2ccc(C(=O)Nc3ccccc3CP(=O)([O-])OCC[N+](C)(C)C)cc2)cc1
36 | Active | CCCCCCCCOc1ccc(-c2ccc(C(=O)Nc3ccc(C(F)(F)C(F)(F)P(=O)(O)O)cc3)cc2)cc1
37 | Active | CCCCCCCCOc1ccc(-c2ccc(C(=O)Nc3ccc(C(F)(F)P(=O)(O)OCC)cc3)cc2)cc1
38 | Active | CCCCCCCCOc1ccc(-c2ccc(C(=O)Nc3cccc(CCP(=O)(O)O)c3)cc2)cc1
39 | Active | CCCCCCCCOc1ccc(-c2ccc(C(=O)N(C)c3ccccc3C(F)(F)P(=O)(O)O)cc2)cc1
40 | Active | CCCCCCCCOc1ccc(-c2ccc(C(=O)Nc3cccc(P(=O)(O)OCC)c3)cc2)cc1
41 | Active | CCCCCCCCOc1ccc(-c2ccc(C(=O)Nc3ccccc3C(F)(F)C(F)(F)P(=O)(OCC)OCC)cc2)cc1
42 | Active | CCCCCCCCOc1ccc(-c2ccc(C(=O)Nc3ccccc3CCP(=O)(O)O)cc2)cc1
43 | Active | CCCCCCCCOc1ccc(-c2ccc(C(=O)Nc3ccc(CCP(=O)(O)O)cc3)cc2)cc1
44 | Active | CCCCCCCCOc1ccc(-c2ccc(C(=O)Nc3ccc(P(=O)(O)O)cc3)cc2)cc1
45 | Active | CCCCOc1ccc(-c2ccc(C(=O)Nc3ccccc3CP(=O)(O)O)cc2)cc1

Row | inhibition | Structure (SMILES)
46 | Active | CCCCCCCOc1ccc(-c2ccc(C(=O)Nc3cccc(P(=O)(O)O)c3)cc2)cc1
47 | Active | CCCCCCCCOc1ccc(-c2ccc(C(=O)Nc3cccc(C(F)(F)P(=O)(O)OCC)c3)cc2)cc1
48 | Active | CCCCCCCCOc1ccc(-c2ccc(C(=O)Nc3ccccc3P(=O)(O)OCC)cc2)cc1
49 | Active | CCCCCCCCOc1ccc(-c2ccc(C(=O)Nc3cccc(C(F)(F)C(F)(F)P(=O)(O)O)c3)cc2)cc1
50 | Active | CCCCCCCCOc1ccc(-c2ccc(C(=O)Nc3cccc(CP(=O)(O)O)c3)cc2)cc1
51 | Active | CCCCCCCCOc1ccc(-c2ccc(C(=O)Nc3ccccc3C(F)(F)P(=O)(O)O)cc2)cc1
52 | Active | CCCCCCCCOc1ccc(-c2ccc(C(=O)Nc3ccc(CP(=O)(O)O)cc3)cc2)cc1
53 | Active | CCCCCCCCOc1ccc(-c2ccc(C(=O)Nc3cccc(C(F)(F)P(=O)(O)O)c3)cc2)cc1
54 | Active | CCCCCCCCOc1ccc(-c2ccc(C(=O)Nc3cccc(CP(=O)(O)OCC)c3)cc2)cc1
55 | Active | CCCCCCc1ccc(-c2ccc(C(=O)Nc3ccccc3CP(=O)(O)O)cc2)cc1
56 | Active | CCCCCCCCOc1ccc(-c2ccc(C(=O)Nc3ccccc3P(=O)(OCC)OCC)cc2)cc1
57 | Active | CCCCCCCCOc1ccc(-c2ccc(C(=O)Nc3ccccc3C(F)(F)C(F)(F)P(=O)(O)O)cc2)cc1
58 | Active | CCCCCCCCCCOc1ccc(-c2ccc(C(=O)Nc3ccccc3P(=O)(OCC)OCC)cc2)cc1
59 | Active | CCCCCCCCOc1ccc(-c2ccc(C(=O)Nc3ccc(P(=O)(O)OCC)cc3)cc2)cc1
60 | Active | CCCCCCCCOc1ccc(-c2ccc(C(=O)Nc3ccccc3CCP(=O)(OCC)OCC)cc2)cc1
61 | Active | CCCCCCCCOc1ccc(-c2ccc(C(=O)Nc3cccc(P(=O)(O)O)c3)cc2)cc1
62 | Active | CCCCCCCCOc1ccc(-c2ccc(C(=O)Nc3ccc(C(F)(F)P(=O)(O)O)cc3)cc2)cc1
63 | Active | CCCCCCCCOc1ccc(-c2ccc(C(=O)Nc3ccccc3P(=O)(O)O)cc2)cc1
